Measured values from patent publication US20220305019A1, “PARAXANTHINE-BASED COMPOSITIONS FOR PROMOTING WEIGHT LOSS” (Ingenious Ingredients, LP, priority 2021, published 2022).

Experiment: Resting energy expenditure after oral ingestion of PX, crossover, two participants
Assay type: in vivo, human
Protocol: Upon determination of baseline resting energy expenditure, two participants were assigned in a randomized, double-blind, placebo-controlled, crossover fashion to ingest a non-energetic placebo (maltodextrin), 100 mg paraxanthine (PX), 200 mg PX or 300 mg PX. All supplements were orally ingested with 8 fluid ounces of cold tap water. The order of administration for all interventions was randomized using a random allocation software to ensure randomization and to avoid order effects. After ingestion, participants completed all assessments in an identical fashion 30, 60, 90, 120, and 180 minutes after ingestion of their assigned supplement. All study visits took place between 0600-1000 hours. At least 72 hours of rest took place between each condition.

For `Cn1c(=O)[nH]c2ncn(C)c2c1=O` [PX, paraxanthine], the “Resting Energy Expenditure” value (100 mg PX, 30 min, person one) was 1,943 kcal/day, the “Resting Energy Expenditure” value (100 mg PX, 30 min, person two) was 1,690 kcal/day and the “Resting Energy Expenditure” value (100 mg PX, 60 min, person one) was 1,862 kcal/day. The “Resting Energy Expenditure” value (100 mg PX, 60 min, person two) was 1,809 kcal/day, the “Resting Energy Expenditure” value (100 mg PX, 90 min, person one) was 1,921 kcal/day and the “Resting Energy Expenditure” value (100 mg PX, 90 min, person two) was 1,899 kcal/day. The “Resting Energy Expenditure” value (100 mg PX, 120 min, person one) was 1,990 kcal/day, the “Resting Energy Expenditure” value (100 mg PX, 120 min, person two) was 1,787 kcal/day and the “Resting Energy Expenditure” value (100 mg PX, 180 min, person one) was 2,129 kcal/day. For the same compound, the “Resting Energy Expenditure” value (100 mg PX, 180 min, person two) was 1,796 kcal/day, the “Resting Energy Expenditure MEAN” value (100 mg PX, Average of both) was 1,883 kcal/day and the “Resting Energy Expenditure MEAN” value (100 mg PX, person one) was 1,969 kcal/day. The “Resting Energy Expenditure MEAN” value (100 mg PX, person two) was 1,796 kcal/day, the “Resting Energy Expenditure” value (200 mg PX, 30 min, person one) was 2,007 kcal/day and the “Resting Energy Expenditure” value (200 mg PX, 30 min, person two) was 1,703 kcal/day. For the same compound, the “Resting Energy Expenditure” value (200 mg PX, 60 min, person one) was 1,702 kcal/day, the “Resting Energy Expenditure” value (200 mg PX, 60 min, person two) was 1,782 kcal/day and the “Resting Energy Expenditure” value (200 mg PX, 90 min, person one) was 2,048 kcal/day. The “Resting Energy Expenditure” value (200 mg PX, 90 min, person two) was 1,864 kcal/day, the “Resting Energy Expenditure” value (200 mg PX, 120 min, person one) was 2,221 kcal/day and the “Resting Energy Expenditure” value (200 mg PX, 120 min, person two) was 1,872 kcal/day. For the same compound, the “Resting Energy Expenditure” value (200 mg PX, 180 min, person one) was 2,067 kcal/day, the “Resting Energy Expenditure” value (200 mg PX, 180 min, person two) was 1,853 kcal/day and the “Resting Energy Expenditure MEAN” value (200 mg PX, Average of both) was 1,912 kcal/day. For the same compound, the “Resting Energy Expenditure MEAN” value (200 mg PX, person one) was 2,009 kcal/day, the “Resting Energy Expenditure MEAN” value (200 mg PX, person two) was 1,815 kcal/day and the “Resting Energy Expenditure” value (300 mg PX, 30 min, person one) was 2,267 kcal/day. For the same compound, the “Resting Energy Expenditure” value (300 mg PX, 30 min, person two) was 1,840 kcal/day, the “Resting Energy Expenditure” value (300 mg PX, 60 min, person one) was 2,354 kcal/day and the “Resting Energy Expenditure” value (300 mg PX, 60 min, person two) was 1,749 kcal/day. For the same compound, the “Resting Energy Expenditure” value (300 mg PX, 90 min, person one) was 2,312 kcal/day, the “Resting Energy Expenditure” value (300 mg PX, 90 min, person two) was 1,769 kcal/day and the “Resting Energy Expenditure” value (300 mg PX, 120 min, person one) was 2,436 kcal/day. For the same compound, the “Resting Energy Expenditure” value (300 mg PX, 120 min, person two) was 1,831 kcal/day, the “Resting Energy Expenditure” value (300 mg PX, 180 min, person one) was 2,402 kcal/day and the “Resting Energy Expenditure” value (300 mg PX, 180 min, person two) was 1,913 kcal/day. The “Resting Energy Expenditure MEAN” value (300 mg PX, Average of both) was 2,098 kcal/day, the “Resting Energy Expenditure MEAN” value (300 mg PX, person one) was 2,374 kcal/day and the “Resting Energy Expenditure MEAN” value (300 mg PX, person two) was 1,822 kcal/day.
